{
  "source": "paper PMC10907374",
  "about": "“G2019S selective LRRK2 kinase inhibitor abrogates mitochondrial DNA damage” (NPJ Parkinson's Disease, 2024)",
  "key": {"[1]": {"biological_target": "T1, LRRK2 in healthy control lymphoblastoid cells (LCLs) (Homo sapiens, UniProt Q5S007)", "T1 construct": "Due to the differing endogenous LRRK2 levels; host or cells: healthy subject control-derived lymphoblastoid cell lines (n = 2)", "test": "LRRK2 pSer935 western immunoblot in healthy control-derived LCLs", "type": "cell-based", "conditions": "10 and 100 nM, 2 h", "method": "PD patient G2019S LRRK2 (n = 2) and healthy subject control (n = 2)-derived LCLs were obtained from the NINDS Coriell biorepository (ID numbers are ND00011, ND00264, ND01618, ND02559). […] LCLs were cultured at 37 °C, 5% CO2, in RPMI-1640 (Sigma-Aldrich, R8758), 15% heat-inactivated fetal bovine serum (VWR Seradigm, 97068-091) and 0.5% Penicillin/Streptomycin (Corning, 30-002-CI). […] All in vitro experiments were repeated at least three times from distinct samples.\nFor LRRK2-WT or G2019S-LRRK2, ~1.5 million cells were pelleted and resuspended in 75 μl of lysis buffer [(RIPA Buffer (Sigma-Aldrich, R0278-50ML), protease inhibitor cocktail (Sigma-Aldrich, P8340), and Halt phosphatase inhibitor cocktail (Thermo Fisher, 78420)]. For LCLs, five million cells were pelleted and resuspended in 100 µl of lysis buffer. For both types of cells lysates were centrifuged at 10,000 × g after a 10 min incubation on ice, and the supernatant was collected. Protein was quantified using the DC protein assay (Bio-Rad, 5000112). In total, 50 μg of protein was loaded for HEK293 LRRK2-WT or G2019S-LRRK2 cells. […] Fluorescence intensities were quantified using ImageStudio Lite software (LI-COR), and the signal from the protein of interest was normalized to the fluorescence intensity of either LRRK2 or β-actin. […]"}, "[2]": {"biological_target": "T2, G2019S variant of human LRRK2 (G2019S-LRRK2) (Homo sapiens, UniProt Q5S007, G2019S)", "T2 construct": "WT-LRRK2 or G2019S-LRRK2 overexpressing cells show expression of LRRK2 pSer1292 and full-length LRRK2; expressed in transfected cells", "T2 sequence (Q5S007 whole entry G2019S)": "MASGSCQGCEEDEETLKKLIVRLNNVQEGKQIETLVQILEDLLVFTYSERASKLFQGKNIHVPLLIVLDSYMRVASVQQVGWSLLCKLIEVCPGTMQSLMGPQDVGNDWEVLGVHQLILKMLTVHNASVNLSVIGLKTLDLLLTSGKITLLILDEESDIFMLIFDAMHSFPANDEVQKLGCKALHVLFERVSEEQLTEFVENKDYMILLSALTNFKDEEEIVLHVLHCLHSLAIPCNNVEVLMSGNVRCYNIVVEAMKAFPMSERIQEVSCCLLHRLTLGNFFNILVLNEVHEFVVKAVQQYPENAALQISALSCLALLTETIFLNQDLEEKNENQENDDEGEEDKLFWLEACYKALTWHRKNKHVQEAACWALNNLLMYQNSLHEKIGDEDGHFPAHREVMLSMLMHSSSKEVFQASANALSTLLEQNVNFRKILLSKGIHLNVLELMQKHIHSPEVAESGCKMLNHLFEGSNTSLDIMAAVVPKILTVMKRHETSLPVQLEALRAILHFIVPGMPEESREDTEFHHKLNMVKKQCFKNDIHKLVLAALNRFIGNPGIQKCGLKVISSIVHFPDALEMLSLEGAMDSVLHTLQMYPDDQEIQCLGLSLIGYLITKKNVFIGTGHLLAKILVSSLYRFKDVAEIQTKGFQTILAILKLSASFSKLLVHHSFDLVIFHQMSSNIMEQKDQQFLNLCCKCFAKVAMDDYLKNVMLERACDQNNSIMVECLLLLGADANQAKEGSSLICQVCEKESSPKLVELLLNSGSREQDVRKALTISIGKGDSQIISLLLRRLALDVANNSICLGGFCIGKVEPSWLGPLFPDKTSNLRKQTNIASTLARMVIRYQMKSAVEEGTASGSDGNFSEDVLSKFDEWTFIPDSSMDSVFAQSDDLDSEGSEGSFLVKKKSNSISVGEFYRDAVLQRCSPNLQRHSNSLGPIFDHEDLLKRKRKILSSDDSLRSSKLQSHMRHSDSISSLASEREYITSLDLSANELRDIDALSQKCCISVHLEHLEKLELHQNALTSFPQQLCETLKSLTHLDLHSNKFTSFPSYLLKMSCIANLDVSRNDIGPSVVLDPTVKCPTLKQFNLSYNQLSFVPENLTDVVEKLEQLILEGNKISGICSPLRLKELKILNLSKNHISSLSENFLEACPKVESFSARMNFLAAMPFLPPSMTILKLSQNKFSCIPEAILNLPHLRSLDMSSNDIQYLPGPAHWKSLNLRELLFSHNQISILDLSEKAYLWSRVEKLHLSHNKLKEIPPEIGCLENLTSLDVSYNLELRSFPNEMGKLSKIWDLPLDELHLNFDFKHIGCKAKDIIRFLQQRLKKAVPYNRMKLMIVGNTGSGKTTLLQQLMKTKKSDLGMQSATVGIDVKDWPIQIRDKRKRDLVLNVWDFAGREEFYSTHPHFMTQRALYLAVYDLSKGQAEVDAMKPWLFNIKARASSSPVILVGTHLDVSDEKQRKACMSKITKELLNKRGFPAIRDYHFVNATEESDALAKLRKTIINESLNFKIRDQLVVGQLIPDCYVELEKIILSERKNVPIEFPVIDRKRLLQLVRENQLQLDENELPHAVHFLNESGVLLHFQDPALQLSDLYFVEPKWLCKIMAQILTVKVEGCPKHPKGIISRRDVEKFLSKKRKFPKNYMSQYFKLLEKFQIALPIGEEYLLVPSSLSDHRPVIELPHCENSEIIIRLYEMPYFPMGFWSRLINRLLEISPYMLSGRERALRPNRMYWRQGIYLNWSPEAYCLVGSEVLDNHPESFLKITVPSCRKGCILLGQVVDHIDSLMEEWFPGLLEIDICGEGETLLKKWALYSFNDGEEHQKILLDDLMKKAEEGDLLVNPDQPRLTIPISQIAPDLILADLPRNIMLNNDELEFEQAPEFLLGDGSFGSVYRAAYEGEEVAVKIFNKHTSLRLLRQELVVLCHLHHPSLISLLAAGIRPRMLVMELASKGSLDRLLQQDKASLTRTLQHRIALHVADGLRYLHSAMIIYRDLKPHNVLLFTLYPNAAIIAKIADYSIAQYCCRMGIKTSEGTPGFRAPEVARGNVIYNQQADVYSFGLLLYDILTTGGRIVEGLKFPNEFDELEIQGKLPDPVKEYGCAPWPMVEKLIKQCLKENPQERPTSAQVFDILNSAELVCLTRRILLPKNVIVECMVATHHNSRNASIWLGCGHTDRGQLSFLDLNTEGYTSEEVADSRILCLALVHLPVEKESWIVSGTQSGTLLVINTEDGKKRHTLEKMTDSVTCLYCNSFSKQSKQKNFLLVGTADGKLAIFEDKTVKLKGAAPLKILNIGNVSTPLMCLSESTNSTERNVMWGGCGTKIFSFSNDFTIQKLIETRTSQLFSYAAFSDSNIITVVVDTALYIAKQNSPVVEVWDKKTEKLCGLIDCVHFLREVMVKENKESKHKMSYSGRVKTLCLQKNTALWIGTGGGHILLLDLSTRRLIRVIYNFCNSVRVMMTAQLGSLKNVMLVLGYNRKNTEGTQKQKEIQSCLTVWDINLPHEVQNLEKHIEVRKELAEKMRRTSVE", "test": "LRRK2 pSer935 quantitative western immunoblot in HEK293 cells stably overexpressing G2019S-LRRK2", "type": "cell-based", "method": "Cells were plated at a density of 0.3 × 10^6 cells in a 6-well dish and treated at ~40–50% confluency. At the time of harvest, cells were collected and either protein collected or DNA extracted as described below.\nFor LRRK2-WT or G2019S-LRRK2, ~1.5 million cells were pelleted and resuspended in 75 μl of lysis buffer [(RIPA Buffer (Sigma-Aldrich, R0278-50ML), protease inhibitor cocktail (Sigma-Aldrich, P8340), and Halt phosphatase inhibitor cocktail (Thermo Fisher, 78420)]. For LCLs, five million cells were pelleted and resuspended in 100 µl of lysis buffer. For both types of cells lysates were centrifuged at 10,000 × g after a 10 min incubation on ice, and the supernatant was collected. Protein was quantified using the DC protein assay (Bio-Rad, 5000112). In total, 50 μg of protein was loaded for HEK293 LRRK2-WT or G2019S-LRRK2 cells. Due to the differing endogenous LRRK2 levels, 40 µg of ND02559, 60 µg of ND00264, or 100 µg of ND00011 and ND01618 of protein sample was loaded. Protein samples were incubated at 100 °C for 5 min with NuPAGE Sample loading dye (Thermo Fisher, NP0007) and dithiothreitol as reducing agent. After 4–20% SDS-PAGE, the blots were blocked in 5% w/v nonfat dry milk in 1X PBST (0.05% Tween 20). For our investigations, the following primary antibodies were used: mouse anti-LRRK2 N241a (Antibodies INC, 75-253, 1:5000 for HEK293 cells and 1:2000 for LCLs), rabbit anti-LRRK2 pS935 (Abcam, ab133450, 1:10,000 for HEK293 cells and 1:2000 for LCLs), mouse anti-β-actin (Novus, 8H10D10, 1:10,000), and rabbit anti-LRRK2 pS1292 (Abcam, ab203181, 1:500). The blots were then probed with fluorescent-labeled secondary antibodies, IRDye donkey anti-mouse and anti-rabbit at 1:10,000 (LI-COR, 926-32212, 926-68072), and scanned using an Odyssey Imaging scanner (LI-COR). Fluorescence intensities were quantified using ImageStudio Lite software (LI-COR), and the signal from the protein of interest was normalized to the fluorescence intensity of either LRRK2 or β-actin. […]"}},
  "note": "Entries after “also recorded” stand apart in the source; their conditions may differ.",
  "data": [
    {"compound": "CC1=C(C(=O)Nc2ccc3[nH]nc(-c4ccnc(N5CCOCC5)c4)c3c2)C(C)(C)n2nnnc2N1C", "note": "[EB-42168]", "values": [
      {"measurement": "effect on LRRK2 pSer935 (in words)", "setting": "[1]", "value": "did not impact; also recorded: no change; also recorded: without a change"},
      {"measurement": "IC50", "setting": "[2]; G2019S LRRK2 HEK293 cell line, 2 h treatment, 10 nM-1 μM titration, read-out: calculated half-maximal inhibition (IC50) of LRRK2 pSer935", "value": 54, "unit": "nM"},
      {"measurement": "decrease in LRRK2 pSer935 levels", "setting": "[2]; G2019S-LRRK2 cells, 10 nM, 2 h", "value": "no significant dephosphorylation"},
      {"measurement": "fold more potent on G2019S LRRK2 than WT LRRK2 (pS935 IC50)", "setting": "[2]; HEK293 overexpressing cells", "value": "> 90", "unit": "fold"}
    ]}
  ]
}
